# Columns and labels:
# Assay type in all cases: functional
# [1] = system: Trypanosoma cruzi; assay: Antitrypanosomal activity against Trypanosoma cruzi Tulahuen 2 assessed as inhibition of growth of epimastigotes at 25 uM after 5 days by MTT assay relative to control; conditions: Tulahuen 2, 120 h, read-out: GI
# [2] = system: Trypanosoma cruzi; assay: Antitrypanosomal activity against Trypanosoma cruzi CL Brener assessed as parasite viability after 5 days by MTT assay; conditions: 120 h, read-out: ID50 (the source's name)
# [3] = system: Leishmania braziliensis; assay: Antileishmanial activity against Leishmania braziliensis MHOM/BR/00/LTB300 assessed as parasite viability after 5 days by MTT assay; conditions: 120 h, read-out: ID50 (the source's name)
# [4] = system: Trypanosoma cruzi; assay: Antitrypanosomal activity against Trypanosoma cruzi Tulahuen 2 assessed as inhibition of epimastigotes growth after 5 days by MTT assay relative to control; conditions: Tulahuen 2, 120 h, read-out: ID50 (the source's name)
# [5] = system: Trypanosoma cruzi; assay: Antitrypanosomal activity against Trypanosoma cruzi Y assessed as parasite viability after 5 days by MTT assay; conditions: 120 h, read-out: ID50 (the source's name)
# [6] = system: Leishmania pifanoi; assay: Antileishmanial activity against Leishmania pifanoi MHOM/VE/57/LV135 assessed as parasite viability after 5 days by MTT assay; conditions: 120 h, read-out: ID50 (the source's name)
# [7] = Inhibition of nitric oxide production by Griess assay; set-up: concentration or dose not given beside the values; conditions: dose or concentration not given here
SMILES,inhibition of growth at 25 µM [1],IC50 [4],also measured
O=C(O)CSc1no[n+]([O-])c1-c1ccccc1,4%,,
CCSCCS(=O)(=O)c1c(-c2ccccc2)no[n+]1[O-],,7.5 µM,IC50 [2]: 0.9 µM; IC50 [3]: 4 µM; IC50 [5]: 3.9 µM; IC50 [6]: 4.6 µM; inhibition [7]: 10%
Cc1ncc([N+](=O)[O-])n1CCOc1no[n+]([O-])c1S(=O)(=O)c1ccccc1,,5 µM,
COc1ccccc1NCCS(=O)(=O)c1no[n+]([O-])c1-c1ccccc1,,8 µM,IC50 [2]: 7.2 µM; IC50 [3]: 9.9 µM; IC50 [5]: 26.2 µM; IC50 [6]: 33.8 µM; inhibition [7]: < 1%
Cc1ncc([N+](=O)[O-])n1CCOc1nonc1-c1ccccc1,,5 µM,
O=S(=O)(c1ccccc1)c1nonc1S(=O)(=O)c1ccccc1,,2 µM,
Cc1c(-c2nc(S)n[nH]2)no[n+]1[O-],29%,,
N#Cc1c(CNC(c2c[nH]cn2)C2CCNCC2)no[n+]1[O-] (stereo unspecified),7%,,
Cc1nonc1CNC(c1c[nH]cn1)C1CCNCC1 (stereo unspecified),2%,,
NC(=O)c1nonc1CO,0%,,
O=S(=O)(c1ccccc1)c1c(-c2ccccc2)no[n+]1[O-],,5 µM,IC50 [2]: 4.2 µM; IC50 [3]: 1.6 µM; IC50 [5]: 4.3 µM; IC50 [6]: 3.8 µM; inhibition [7]: 10.3%
NC(=O)CSc1c(-c2ccccc2)no[n+]1[O-],19%,,IC50 [2]: > 50 µM; IC50 [3]: > 50 µM; IC50 [5]: > 50 µM; IC50 [6]: > 50 µM
NC(=O)c1nonc1CN1CCC(Cc2c[nH]cn2)CC1,0%,,
Cc1ncc([N+](=O)[O-])n1CCNCc1no[n+]([O-])c1C,17%,,
N#Cc1nonc1-c1ccccc1,2%,,
Cc1ncc([N+](=O)[O-])n1CCNCc1no[n+]([O-])c1C#N,5%,,
Cc1nonc1CN(C)C,0%,,
CN(C)CCCOc1nonc1S(=O)(=O)c1ccccc1,15%,,

SMILES,inhibition of growth at 25 µM [1],IC50 [4],also measured
Cc1nonc1-c1nc2ccccc2[nH]1,20%,,
Cc1no[n+]([O-])c1-c1ccc(C(=O)O)cc1,38%,,
Nc1c(-c2ccccc2)no[n+]1[O-],39%,,
COC(=O)CSc1no[n+]([O-])c1-c1ccccc1,15%,,
O=C(O)CSc1c(S(=O)(=O)c2ccccc2)no[n+]1[O-],0%,,
O=S(=O)(c1ccccc1)c1no[n+]([O-])c1S(=O)(=O)c1ccccc1,,3.5 µM,
Cc1ncc([N+](=O)[O-])n1CCNCc1no[n+]([O-])c1C(N)=O,10%,,
c1ccc(-c2nonc2SC2CCNCC2)cc1,34%,,
CCOc1c(-c2ccccc2)no[n+]1[O-],,18 µM,
NC(=O)c1c(CN2CCCCC2)no[n+]1[O-],4%,,
CN(C)C(=O)CS(=O)(=O)c1c(-c2ccccc2)no[n+]1[O-],,7.5 µM,
NC(=O)c1no[n+]([O-])c1-c1ccccc1,10%,,
CN(C)CCCOc1nonc1-c1c[nH]cn1,3%,,
CN(C)CCCOc1no[n+]([O-])c1-c1ccccc1,0%,,
CC1CS(=O)(=O)CCN1/N=C/c1ccc([N+](=O)[O-])o1 (stereo unspecified) [NIFURTIMOX],,7.7 µM,IC50 [2]: 4.9 µM; IC50 [5]: 9.7 µM
[O-][n+]1onc(SC2CCNCC2)c1-c1ccccc1,32%,,
[O-][n+]1onc(Br)c1-c1ccccc1,,13 µM,

# From ChEMBL document CHEMBL1140032, “Furoxan-, alkylnitrate-derivatives and related compounds as anti-trypanosomatid agents: mechanism of action studies” (2008)
